# Assay results from US20050220836A1, “Drug delivery device” (priority 2004, published 2005).
# How the values were obtained:
# [1] = in vivo release kinetics of cladribine from polymeric stent coatings; set-up: species or system Yorkshire pig; settings: Bx Velocity stents
# Source text: FIG. 61 is a graphical representation of the in vivo release kinetics of cladribine from a polymeric coating on BxVelocity® stents, available from Cordis Corporation, implanted in a Yorkshire pig. The basecoat comprises an 85/15 ratio of PVDF and HFP and cladribine for a total combined weight of one thousand eight hundred micrograms (cladribine comprising thirty percent of the total weight). […]
# (§1) The basecoat is applied to Bx Velocity® stents and implanted into Yorkshire pigs.
# as §1
# [2] = tested on: human coronary artery smooth muscle cells; assay: anti-proliferative activity in non-synchronized cultured cells stimulated with two percent fetal bovine serum; format: cell-based
# Source text: The multiple curves represent various concentrations of mycophenolic acid ranging from zero to one thousand nanomolar concentrations.
# FIG. 58 illustrates, in graphical format, the anti-proliferative activity of cladribine in non-synchronized cultured human coronary artery smooth muscle cells stimulated with two percent fetal bovine serum.
# The multiple curves represent various concentrations of cladribine ranging from zero to nine hundred nanomolar concentrations.
# [3] = tested on: human smooth muscle cells; assay: Cladribine example, PDGF-stimulated cell proliferation, smooth muscle cells; format: cell-based; settings: for % of PDGF-stimulated increase in cell count: SMC, day six, mean of triplicate
# Description: (§2) To assess the ability of cladribine to prevent cell proliferation, human smooth muscle or endothelial cells (Clonetics, Walkersville, Md.) were seeded at a density of 2000 cells/cm^2 (approximately 3600 cells/well) into each well of 12-well plates and cultured with 1.5 ml of growth medium containing five percent fetal calf serum (FCS). After twenty-four hours, the growth medium was changed and fresh medium containing 10 ng/ml platelet-derived growth factor AB (PDGF AB; LIFE Technologies), as well as various concentrations of cladribine (0.001-10,000 nM) were added with triplicate wells. Medium was replaced with fresh cladribine-containing medium after three days. On day six, cells were detached by trypsinization to yield a cell suspension, lightly centrifuged to pellet and then counted manually using a Neubauer hemocytometer system. Cell viability was assessed by trypan blue exclusion.
# human endothelial cells = assay: Cladribine example, PDGF-stimulated cell proliferation, endothelial cells; format: cell-based; settings: for % of PDGF-stimulated increase in cell count: EC, day six, mean of triplicate
# Description: as §2
# cell viability = cell viability assay; format: cell-based
# Source text: (§3) The multiple curves represent various concentrations of topotecan ranging from zero to three hundred nanomolar concentrations.
# (§4) The multiple curves represent various concentrations of etoposide ranging from zero to eight hundred nanomolar concentrations.
# [4] = tested on: human coronary artery smooth muscle cells; assay: anti-proliferative activity in synchronized cultured cells stimulated with two percent fetal bovine serum; format: cell-based
# Source text: as §3, §4
# The multiple curves represent various concentrations of Panzem® ranging from zero to 100 micromolar concentrations.
# [5] = in vivo release kinetics from rapamycin, mycophenolic acid and polymer coating, porcine pharmacokinetics studies; settings: 180 micrograms each drug, with or without BMA topcoat
# [6] = tested on: human coronary artery smooth muscle cell proliferation; assay: in vitro cell culture study, coronary artery smooth muscle cell proliferation; format: cell-based
# Source text: FIG. 51 is a graph of the inhibition of coronary artery smooth muscle cells by trichostatin A in a cell culture study.
# tumor cell lines = tumor cell lines (Woo et al., 2002); cited from earlier work
smiles,measurement,setting,value
"Nc1nc(Cl)nc2c1ncn2[C@H]1C[C@H](O)[C@@H](CO)O1 [Cladribine, 2-chlorodeoxyadenosine]",elution from PVDF/HFP (85/15) coating,"[1]; Yorkshire pig, 1800 microgram basecoat with thirty percent cladribine, 300 microgram topcoat",levels off significantly
same,elution from EVA/BMA basecoat compared with rapamycin,"[1]; Yorkshire pigs, 200 microgram BMA topcoat",elutes more rapidly than rapamycin
same,effect of addition on anti-proliferative activity of rapamycin,"[2]; cladribine zero to nine hundred nanomolar added to rapamycin, non-synchronized cells",increases the percent inhibition of rapamycin alone
same,inhibition of human coronary artery smooth muscle cell proliferation,"[2]; non-synchronized cells, two percent fetal bovine serum",completely inhibits
same,IC50,"[2]; non-synchronized human coronary artery smooth muscle cells, two percent fetal bovine serum",~241 nM
same,IC50,"[3]; Homo sapiens, PDGF AB stimulated, reduction to 50 percent of vehicle-treated cell count, read-out: IC50 for inhibition of smooth muscle cell growth",23 nM
same,% of PDGF-stimulated increase in cell count,[3]; cladribine 0.01 nM,104%
same,% of PDGF-stimulated increase in cell count,[3]; cladribine 0.1 nM,86%
same,% of PDGF-stimulated increase in cell count,[3]; cladribine 1 nM,85%
same,% of PDGF-stimulated increase in cell count,[3]; cladribine 10 nM,54%
same,% of PDGF-stimulated increase in cell count,[3]; cladribine 100 nM,58%
same,% of PDGF-stimulated increase in cell count,[3]; cladribine 1000 nM,12%
same,% of PDGF-stimulated increase in cell count,"[3]; cladribine 10,000 nM",−4%
same,potency on smooth muscle cells relative to endothelial cells,[3]; from the IC50 values,approximately twice as potent
same,% of PDGF-stimulated increase in cell count,human endothelial cells; cladribine 0.001 nM,100%
same,% of PDGF-stimulated increase in cell count,human endothelial cells; cladribine 0.01 nM,90%
same,% of PDGF-stimulated increase in cell count,human endothelial cells; cladribine 0.1 nM,79%
same,% of PDGF-stimulated increase in cell count,human endothelial cells; cladribine 1 nM,75%
same,% of PDGF-stimulated increase in cell count,human endothelial cells; cladribine 10 nM,59%
same,% of PDGF-stimulated increase in cell count,human endothelial cells; cladribine 100 nM,57%
same,% of PDGF-stimulated increase in cell count,human endothelial cells; cladribine 1000 nM,35%
same,% of PDGF-stimulated increase in cell count,"human endothelial cells; cladribine 10,000 nM",10%
same,IC50,"human endothelial cells; Homo sapiens, Endothelial cell, PDGF AB stimulated, reduction to 50 percent of vehicle-treated cell count, read-out: IC50 for inhibition of endothelial cell growth",40 nM
"COc1cc([C@@H]2c3cc4c(cc3[C@@H](O[C@@H]3O[C@@H]5CO[C@@H](C)O[C@H]5[C@H](O)[C@H]3O)[C@H]3COC(=O)[C@H]23)OCO4)cc(OC)c1O [Etoposide, etoposide]",cytotoxicity,cell viability; at concentrations up to ten micromolar,non-cytotoxic
same,effect of addition on anti-proliferative activity of rapamycin,[4]; etoposide zero to eight hundred nanomolar added to rapamycin,increases the percent inhibition of rapamycin alone
"COc1cc2c(cc1O)CC[C@@H]1[C@@H]2CC[C@]2(C)[C@@H](O)CC[C@@H]12 [Panzem®, 2-methoxyestradiol]",effect of addition on anti-proliferative activity of rapamycin,[4]; Panzem zero to 100 micromolar added to rapamycin,increases the percent of inhibition of rapamycin alone
same,anti-proliferative activity alone,[4]; two percent fetal bovine serum,extremely effective inhibitor
"CC[C@@]1(O)C(=O)OCc2c1cc1n(c2=O)Cc2cc3c(CN(C)C)c(O)ccc3nc2-1 [Topotecan, topotecan]",cytotoxicity,cell viability; at concentrations up to one micromolar,non-cytotoxic
same,effect of addition on anti-proliferative activity of rapamycin,[4]; topotecan zero to three hundred nanomolar added to rapamycin,increases the percent inhibition of rapamycin alone
COc1c(C)c2c(c(O)c1C/C=C(\C)CCC(=O)O)C(=O)OC2 [mycophenolic acid],effect of addition on anti-proliferative activity of rapamycin,"[2]; mycophenolic acid zero to one thousand nanomolar added to rapamycin, non-synchronized cells",potentiates the anti-proliferative activity of rapamycin
same,release from EVA/BMA basecoat compared with rapamycin,[5],elutes more completely over a shorter duration than the rapamycin
CC(/C=C/C(=O)NO)=C\[C@@H](C)C(=O)c1ccc(N(C)C)cc1 [trichostatin A],IC50,"[6]; human coronary artery smooth muscle cells, cell culture, read-out: anti-proliferative IC50",~6 nM
same,inhibition of human coronary artery smooth muscle cell proliferation,[6]; in vitro cell culture,completely inhibit
same,anti-proliferative IC50,tumor cell lines,low nM range
